Measurements taken from article PMC6128612, “Prodrugs for colon-restricted delivery: Design, synthesis, and in vivo evaluation of colony stimulating factor 1 receptor (CSF1R) inhibitors” (PLoS ONE, 2018).
pEC50, pIC50: −log10 of the molar value. Where two headings read alike, the source gives them in different places.

How the values were obtained:
CSF1R = CSF1R (Homo sapiens, UniProt P07333); assay: CSF1R enzyme activity (TR-FRET binding displacement, kinase panel)
Method: TR-FRET-based binding displacement studies using active site probes were used to assess kinome selectivity of inhibitor molecules.[54] The concentrations of components for each purified kinase were based on optimized conditions with ranges as follows: kinases (1.25–12.5 nM), Oregon Green-labeled fluorescent probes (2x KD of probe to the particular kinase; range of 1–200 nM; in-house), terbium anti-His or anti-GST antibody (0.5–2 nM). The reaction buffer was diluted to 1x using ddH2O and contained 1 mM DTT.
Compounds were typically tested from 0.0001 to 10 μM in 10x dilutions. Reactions were carried out in a 20 μL volume in 384-well plates by combining kinase, probe, antibody, and test compound and allowing the reaction to come to equilibrium (incubation of 2 h). TR-FRET was then measured on a PerkinElmer Envision plate reader (excitation at 340 nm; emission at 520 and 495 nm). Competition by the test compound versus the fluorescent probe for the ATP binding site of the kinase was quantified by calculating the IC50 value based on a four-parameter logistic curve fit.

[1] = Plasma stability in vitro; format: in vitro ADME, mouse
[2] = PK experiment dosing hemi-succinate 15 IV or PO; format: in vivo, mouse; settings: IV or PO 1 mg/kg; 0.5 to 12 h
[3] = Oral administration of prodrugs to mice: colon, plasma, feces exposure; format: in vivo; settings: mouse; for Prodrug levels in plasma after oral dosing / Prodrug plasma concentration, fold lower than active parent 1: dose equal to 30 mg/kg of 1; for Plasma versus colon levels of active parent 1 after oral prodrug: dose equal to 30 mg/kg of 1, 3 and 11 h
Method: (§1) Active Parent–Male CD1 mice (N = 3) received a single oral administration of compound 1 at 30 mg/kg prepared as a nanosuspension in 2% HPC-SL, 0.2% SDS in water and dosed at 10 ml/kg. Active Parent Prodrugs–Male CD1 mice or female C57BL/6 mice (N = 3) received a single oral adminstration of prodrug at 30 mg/kg active parent equivalent in either 10% Cremophor EL + 90% 1% Na-carboxymethylcellulose (NaCMC) at 10 ml/kg or as a nanosuspension in 2% HPC-SL, 0.2% SDS in water at 10 ml/kg.Blood samples were taken over 11 hours, and colon samples were taken at 3, 6 and/or 11 hours post dose. Mice received either Teklad Global Diet 2014 (Envigo Teklad, Madison, WI or LabDiet #5010 (LabDiet, St. Louis, MO).
(§2) Due to the inherent risk of fecal or PR-dosed material contaminating true levels of colon tissue exposure, careful flushing of colon tissue for drug analysis was required. Upon necropsy, a section of mouse colon was removed, and flushed with PBS until no visible fecal material was observed. Subsequently, a 1–2 cm section of colon was blotted dry, weighed and snap-frozen in liquid nitrogen.
(§3) Colon tissue (~50 mg) was diluted 10x in Veterinary Sterile Water for Irrigation (USP by Abbott), then 1.4 mm zirconium oxide beads were added and tissue was homogenized using an Omni Bead Ruptor 24 (Omni International, Kennesaw, GA). Aliquots of colon homogenate samples and a set of colon standards were pipetted in 96-well plates and subjected to protein precipitation extraction (with acetonitrile + internal standard) on a Microlab Star robot (Hamilton Robotics, Reno, NV). Plates were then mixed on a MixMate (Eppendorf, Hamburg, Germany) for 1 min at 1600 rpm and centrifuging for 5 min at 4000 rpm in 5810 R Centrifuge (Eppendorf, Hamburg, Germany). Supernatant was transferred into new plates and diluted with LC-MS/MS mobile phase.
(§4) Spiked standards were prepared in the appropriate matrices. All unknown samples and spiked standards were combined with acetonitrile containing internal standard, vortexed, and centrifuged to pellet the proteins. Supernatants were used for subsequent analysis by LC-MS/MS. The mobile phase consisted of acetonitrile with 0.1% formic acid, and water with 0.1% formic acid at a flow rate of 0.8 mL/min. Analytes were separated using reverse phase chromatography with a fast gradient on a 30 x 2.1 mm Fortis C18 Pace […] column, prior to analysis on a Sciex API5500™ mass spectrometer. Peak areas were determined using Sciex Analyst™ 1.6 software. Actual concentrations were calculated by regression analysis of the peak area ratio (parent / internal standard) of the spiked standards versus concentration.

[4] = test system: Mouse bone marrow derived macrophages (BMDM); assay: Mouse macrophage differentiation assay (CSF-induced); format: cell-based; settings: for pEC50: CSF-induced mouse macrophage differentiation, mean from n ≥3 experiments, read-out: Mouse Mac EC50; for EC50: Mus musculus, adjusted for binding in 10% FBS, read-out: Cellular EC50 corrected for binding in 10% FBS
Method: Mouse bone marrow derived macrophages (BMDM) were isolated as previously described[53] from C57BL/6 female mice. The isolated cells were washed using standard growth medium (RPMI (Gibco cat# 11875–093) with 2 mM L-glutamine (Gibco cat# 25033), 1% Pen/Strep (Gibco cat# 15140), 10% heat inactivated fetal bovine serum (HI-FBS, Gibco cat# 10438), and 0.1% beta-mercaptoethanol (BME, Gibco cat# 21985–023)), and filtered through a […] cell strainer (Falcon cat# 352360). Cells were counted, re-suspended in growth medium, and plated at 1x10^5 viable cells per well in a 96 well plate (Corning cat# 3603). Inhibitors were added at various concentrations to the cells, and incubated at 37°C/5% CO2 for 30 minutes. Recombinant mouse macrophage colony stimulating factor (M-CSF, R&D cat# 416-ML-010) was added to the plates at a final concentration of […]. Plates were transferred to a 37°C/5% CO2 incubator for 5 days. On the fifth day, supernatant was removed from each well and Cell Titer Glo (Promega cat#G7571) was added. Plates were covered from the light and incubated at room temperature for 10 minutes before reading the luminescence on an EnVision plate reader (PerkinElmer).

PAMPA permeability = format: in vitro ADME
[5] = Pharmacokinetic studies of active parent in mice; format: in vivo; settings: mouse; for clearance: male, CD1, blood, read-out: Blood Clearance (total clearance) (converted); for clearance / Blood Clearance (unbound clearance, CLb/fub): 1 mg/kg IV, N = 2–3; for FaFg: 1 mg/kg, F/Fh (compound 6) or AUCoral/AUCip
Method: Male CD1 mice on Teklad Global Diet 2014 (Envigo Teklad, Madison, WI) (n = 2–3 per study) received a single IV, oral or intraperitoneal (IP) administration of compounds 1, 4, 5 or 6 at 1 mg/kg in 2:5:20:73 (v/v) DMSO:Tween 80:PEG-400:D5W dosed at 10 ml/kg. Serial blood samples were taken over 24h and frozen at −20°C until analysis. Pharmacokinetic parameters after IP or PO dosing were calculated by noncompartmental methods, while pharmacokinetic parameters after IV dosing were calculated by compartmental methods using WinNonlin (version 5.2, Certara USA Inc., St. Louis, MO). Mean parameters were determined from 1–3 separate studies. FaFg was determined as F/Fh (compound 6) or as the ratio of AUC after an oral dose to that after an IP dose (AUCoral/AUCip).

[6] = Per rectal versus oral dosing of active parent: colon, liver, plasma exposure; format: in vivo; settings: mouse
Method: Prior to dosing, mice were anaesthetized with Isoflurane and fecal material was removed from colons by irrigating with 0.5 mL of PBS using a syringe fitted with a 22 gauge flexible gavage needle. After a 20 min wake up period, mice were again anesthetized and drug was administered in a volume of 0.1–0.2 mL using a syringe fitted with a 22 gauge flexible gavage needle. Mice were then placed in the anesthesia chamber for 40 min in a supine position with hind end elevated to ensure drug remained in colon. After 40 min, mice were removed from the chamber and blood sampling over time (via tail nick) began.
as §1, §2, §3, §4

Chain of CSF1R (P07333 20-972): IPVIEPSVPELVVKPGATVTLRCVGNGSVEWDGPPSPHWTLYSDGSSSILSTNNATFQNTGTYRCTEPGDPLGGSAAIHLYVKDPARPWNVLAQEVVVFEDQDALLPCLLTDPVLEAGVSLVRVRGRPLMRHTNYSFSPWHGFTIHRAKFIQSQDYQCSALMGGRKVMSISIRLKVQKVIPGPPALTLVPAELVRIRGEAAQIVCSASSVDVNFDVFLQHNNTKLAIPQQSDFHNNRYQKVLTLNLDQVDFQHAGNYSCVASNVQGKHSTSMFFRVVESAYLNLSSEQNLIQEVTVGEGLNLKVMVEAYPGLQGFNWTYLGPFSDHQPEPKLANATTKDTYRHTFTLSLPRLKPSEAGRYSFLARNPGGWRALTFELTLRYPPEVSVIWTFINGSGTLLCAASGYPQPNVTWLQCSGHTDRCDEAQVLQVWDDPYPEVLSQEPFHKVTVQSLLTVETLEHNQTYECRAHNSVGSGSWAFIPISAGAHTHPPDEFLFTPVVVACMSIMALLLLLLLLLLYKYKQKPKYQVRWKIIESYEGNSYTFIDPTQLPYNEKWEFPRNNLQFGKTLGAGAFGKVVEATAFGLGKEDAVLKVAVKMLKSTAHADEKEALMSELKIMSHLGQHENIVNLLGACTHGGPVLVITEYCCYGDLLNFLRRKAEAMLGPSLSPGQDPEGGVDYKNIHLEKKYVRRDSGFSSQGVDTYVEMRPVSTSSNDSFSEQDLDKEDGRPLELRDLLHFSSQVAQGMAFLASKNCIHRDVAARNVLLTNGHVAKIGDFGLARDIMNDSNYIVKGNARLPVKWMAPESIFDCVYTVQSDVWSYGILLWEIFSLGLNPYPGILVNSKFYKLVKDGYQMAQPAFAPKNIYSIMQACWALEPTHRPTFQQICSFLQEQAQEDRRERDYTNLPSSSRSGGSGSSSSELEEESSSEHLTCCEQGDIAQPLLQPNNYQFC

| Compound | Prodrug levels in plasma after oral dosing [3] | pIC50 (CSF1R) | pEC50 [4] | EC50 [4] | Papp (PAMPA permeability) | clearance [5] | Blood Clearance (unbound clearance, CLb/fub) [5] | FaFg [5] | also measured |
| --- | --- | --- | --- | --- | --- | --- | --- | --- | --- |
| O=C(O)CCC(=O)O[C@H]1CC[C@H](n2cc(Nc3nc(C4CCCCC4)cn4ncnc34)cn2)CC1 [Compound 15, 4-(((1r,4r)-4-(4-((6-Cyclohexyl-[1,2,4]triazolo[1,5-a]pyrazin-8-yl)amino)-1H-pyrazol-1-yl)cyclohexyl)oxy)-4-oxobutanoic acid] |  |  |  |  |  |  |  |  | CSF1R enzyme activity inhibition (CSF1R): able to inhibit CSF1R enzyme activity; Stability in plasma [1]: not stable in mouse plasma in vitro; Plasma levels of 15 [2]: no detectable plasma levels of 15 |
| O=C(O)C1OC(OC2CCC(n3cc(Nc4nc(C5CCCCC5)cn5ncnc45)cn3)CC2)C(O)C(O)C1O [Compound 11, (2S,3S,4S,5R,6R)-6-(((1r,4r)-4-(4-((6-Cyclohexyl-[1,2,4]triazolo[1,5-a]pyrazin-8-yl)amino)-1H-pyrazol-1-yl)cyclohexyl)oxy)-3,4,5-trihydroxytetrahydro-2H-pyran-2-carboxylic acid] | no measureable plasma levels |  |  |  |  |  |  |  |  |
| O[C@H]1CC[C@H](n2cc(Nc3nc(C4CCCCC4)cn4ncnc34)cn2)CC1 [Compound 1, (1r,4r)-4-(4-((6-Cyclohexyl-[1,2,4]triazolo[1,5-a]pyrazin-8-yl)amino)-1H-pyrazol-1-yl)cyclohexanol] |  | > 8.00 | 6.95 | 0.022 µg/mL | 15.6 ×10⁻⁶ cm/s | 75 mL/min/kg | 2500 mL/min/kg | 43% | Kp at 1 h ([6]; colon and plasma, other: per rectal (PR), PR 30 mg/kg, 1 h, read-out: colon:plasma ratio (unbound)): 22; Kp at 3 h ([6]; male, CD1, colon and plasma, PO 30 mg/kg, 3 h, read-out: colon:plasma ratio (unbound)): 0.5; Mean colon unbound Cmax ([6]; PO 30 mg/kg, 3 h): 9 ng/g; colon:liver ratio (unbound) ([6]; PO 30 mg/kg, 3 h): 0.34 x; Mean colon unbound Cmax ([6]; PR 30 mg/kg, 1 h): 67 ng/g; colon:liver ratio (unbound) ([6]; PR 30 mg/kg, 1 h): 7 x; Compound in the colon at the terminal time point ([6]; PR 30 mg/kg, 11 h): Lack of compound detection in the colon; 1 h colon exposure versus cellular EC50 ([6]; PR 30 mg/kg, unbound): exceeded the cellular EC50; 1 h plasma exposure exceeding cellular EC50 ([6]; PR 30 mg/kg, unbound): did not |
| OCCn1cc(Nc2nc(C3CCCCC3)cn3ncnc23)cn1 [Compound 4, 2-(4-((6-Cyclohexyl-[1,2,4]triazolo[1,5-a]pyrazin-8-yl)amino)-1H-pyrazol-1-yl)ethanol] |  | > 8.00 | 6.61 | 0.019 µg/mL | 14.1 ×10⁻⁶ cm/s | 108 mL/min/kg | 1700 mL/min/kg | 18% |  |
| CC(C)C(N)C(=O)OC1CCC(n2cc(Nc3nc(C4CCCCC4)cn4ncnc34)cn2)CC1 [Compound 8, (R)-(1r,4r)-4-(4-((6-Cyclohexyl-[1,2,4]triazolo[1,5-a]pyrazin-8-yl)amino)-1H-pyrazol-1-yl)cyclohexyl 2-amino-3-methylbutanoate] |  |  |  |  |  |  |  |  | Prodrug plasma concentration, fold lower than active parent 1 [3]: ~ 10 x; Plasma versus colon levels of active parent 1 after oral prodrug [3]: significantly higher plasma versus colon drug levels |
| CN(C)CC(=O)OC1CCC(n2cc(Nc3nc(C4CCCCC4)cn4ncnc34)cn2)CC1 (stereo not drawn) [Compound 7, (1r,4r)-4-(4-((6-Cyclohexyl-[1,2,4]triazolo[1,5-a]pyrazin-8-yl)amino)-1H-pyrazol-1-yl)cyclohexyl 2-(dimethylamino)acetate] | no prodrug levels were measurable in plasma |  |  |  |  |  |  |  | Plasma versus colon levels of active parent 1 after oral prodrug [3]: significantly higher plasma versus colon drug levels; Stability in plasma [1]: not stable in plasma |
| OCC1OC(OC2CCC(n3cc(Nc4nc(C5CCCCC5)cn5ncnc45)cn3)CC2)C(O)C(O)C1O [Compound 9, (2R,3R,4S,5S,6R)-2-(((1r,4r)-4-(4-((6-Cyclohexyl-[1,2,4]triazolo[1,5-a]pyrazin-8-yl)amino)-1H-pyrazol-1-yl)cyclohexyl)oxy)-6-(hydroxymethyl)tetrahydro-2H-pyran-3,4,5-triol] |  |  |  |  |  |  |  |  | Prodrug plasma concentration, fold lower than active parent 1 [3]: ~ 100 x |
| CC(C)(O)CCn1cc(Nc2nc(C3CCCCC3)cn3ncnc23)cn1 [Compound 5, 4-(4-((6-Cyclohexyl-[1,2,4]triazolo[1,5-a]pyrazin-8-yl)amino)-1H-pyrazol-1-yl)-2-methylbutan-2-ol] |  | > 8.00 | 6.98 | 0.021 µg/mL | 8.7 ×10⁻⁶ cm/s | 80 mL/min/kg | 3280 mL/min/kg | 32% |  |
| O=C(O)[C@H]1CC[C@H](n2cc(Nc3nc(C4CCCCC4)cn4ncnc34)cn2)CC1 [Compound 6] |  | > 8.00 | 6.71 | 0.042 µg/mL | 14.6 ×10⁻⁶ cm/s | 16.7 mL/min/kg | 317 mL/min/kg | 35% |  |
| OCC1OC(OC2CCC(n3cc(Nc4nc(C5CCCCC5)cn5ncnc45)cn3)CC2)C(O)C(O)C1O [Compound 10, (2S,3R,4S,5S,6R)-2-(((1r,4s)-4-(4-((6-cyclohexyl-[1,2,4]triazolo[1,5-a]pyrazin-8-yl)amino)-1H-pyrazol-1-yl)cyclohexyl)oxy)-6-(hydroxymethyl)tetrahydro-2H-pyran-3,4,5-triol] | no measureable plasma levels |  |  |  |  |  |  |  |  |
